Assay results from patent US20220009920A1 (GB005, Inc., priority 2020, published 2022).

Key:
Assay in all cases: Large panel kinase profiling
Type in all cases: biochemical
Conditions in all cases: 1 μM test article, 1 mM ATP
BRAF(V599E) = BRAF(V599E) (Homo sapiens, UniProt P15056, V600E)
Procedure, shortened: (§1)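 Continuous-read kinase assay: chelation-sensor peptide, 1 mM ATP, compound at 1 μM. Plates kept at 30° C.; fluorescence sampled at 1-min intervals (360/485 nm).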

CDK3/E1 = target: T1, CDK3/E1 (Homo sapiens, UniProt Q00526)
T1 construct: AssayQuant Technologies, Inc. (ran the panel)
T1 sequence (Q00526 whole entry, species assumed): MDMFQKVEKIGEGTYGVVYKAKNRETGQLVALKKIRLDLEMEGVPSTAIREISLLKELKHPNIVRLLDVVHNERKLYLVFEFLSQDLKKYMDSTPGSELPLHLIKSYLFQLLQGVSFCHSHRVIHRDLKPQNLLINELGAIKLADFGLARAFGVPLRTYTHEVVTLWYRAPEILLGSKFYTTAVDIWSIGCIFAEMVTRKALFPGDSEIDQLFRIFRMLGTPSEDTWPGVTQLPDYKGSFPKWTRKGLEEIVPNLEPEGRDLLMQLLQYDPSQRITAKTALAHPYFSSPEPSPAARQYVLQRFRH
T1 sequence (P24864 whole entry partner, species assumed): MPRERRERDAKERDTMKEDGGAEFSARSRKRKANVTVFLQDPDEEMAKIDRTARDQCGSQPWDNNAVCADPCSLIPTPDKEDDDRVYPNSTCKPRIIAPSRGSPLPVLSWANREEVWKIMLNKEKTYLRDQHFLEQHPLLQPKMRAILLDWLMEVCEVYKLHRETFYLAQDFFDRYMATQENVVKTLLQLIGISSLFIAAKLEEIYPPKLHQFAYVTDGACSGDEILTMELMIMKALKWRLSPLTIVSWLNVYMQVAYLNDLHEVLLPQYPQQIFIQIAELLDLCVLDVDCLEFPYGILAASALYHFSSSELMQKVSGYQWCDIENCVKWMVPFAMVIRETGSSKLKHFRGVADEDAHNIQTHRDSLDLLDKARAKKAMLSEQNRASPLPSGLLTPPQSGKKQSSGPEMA
Procedure, shortened: as §1

CDK6/D3 = target: T2, CDK6/D3 (Homo sapiens, UniProt Q00534)
T2 construct: AssayQuant Technologies, Inc. (ran the panel)
T2 sequence (Q00534 whole entry, species assumed): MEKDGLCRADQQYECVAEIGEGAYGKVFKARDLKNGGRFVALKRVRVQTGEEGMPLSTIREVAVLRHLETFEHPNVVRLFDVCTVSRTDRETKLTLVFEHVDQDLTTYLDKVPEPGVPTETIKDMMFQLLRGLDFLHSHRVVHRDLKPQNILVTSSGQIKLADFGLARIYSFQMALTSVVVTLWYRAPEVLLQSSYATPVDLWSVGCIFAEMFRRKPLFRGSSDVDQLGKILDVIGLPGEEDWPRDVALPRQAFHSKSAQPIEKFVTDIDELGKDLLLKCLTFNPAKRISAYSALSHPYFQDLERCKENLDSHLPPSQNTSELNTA
T2 sequence (P30281 whole entry partner, species assumed): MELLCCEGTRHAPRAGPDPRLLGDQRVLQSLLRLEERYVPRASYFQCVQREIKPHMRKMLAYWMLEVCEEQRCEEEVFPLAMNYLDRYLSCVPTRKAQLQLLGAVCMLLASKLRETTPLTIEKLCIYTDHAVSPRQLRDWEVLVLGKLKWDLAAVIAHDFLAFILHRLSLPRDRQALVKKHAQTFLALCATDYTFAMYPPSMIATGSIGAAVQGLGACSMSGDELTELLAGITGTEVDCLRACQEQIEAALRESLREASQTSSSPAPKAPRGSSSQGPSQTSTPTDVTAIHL
Procedure, shortened: as §1

ERN1 = ERN1 (Homo sapiens, UniProt O75460)
ERN1, sequence (O75460 19-977, species assumed): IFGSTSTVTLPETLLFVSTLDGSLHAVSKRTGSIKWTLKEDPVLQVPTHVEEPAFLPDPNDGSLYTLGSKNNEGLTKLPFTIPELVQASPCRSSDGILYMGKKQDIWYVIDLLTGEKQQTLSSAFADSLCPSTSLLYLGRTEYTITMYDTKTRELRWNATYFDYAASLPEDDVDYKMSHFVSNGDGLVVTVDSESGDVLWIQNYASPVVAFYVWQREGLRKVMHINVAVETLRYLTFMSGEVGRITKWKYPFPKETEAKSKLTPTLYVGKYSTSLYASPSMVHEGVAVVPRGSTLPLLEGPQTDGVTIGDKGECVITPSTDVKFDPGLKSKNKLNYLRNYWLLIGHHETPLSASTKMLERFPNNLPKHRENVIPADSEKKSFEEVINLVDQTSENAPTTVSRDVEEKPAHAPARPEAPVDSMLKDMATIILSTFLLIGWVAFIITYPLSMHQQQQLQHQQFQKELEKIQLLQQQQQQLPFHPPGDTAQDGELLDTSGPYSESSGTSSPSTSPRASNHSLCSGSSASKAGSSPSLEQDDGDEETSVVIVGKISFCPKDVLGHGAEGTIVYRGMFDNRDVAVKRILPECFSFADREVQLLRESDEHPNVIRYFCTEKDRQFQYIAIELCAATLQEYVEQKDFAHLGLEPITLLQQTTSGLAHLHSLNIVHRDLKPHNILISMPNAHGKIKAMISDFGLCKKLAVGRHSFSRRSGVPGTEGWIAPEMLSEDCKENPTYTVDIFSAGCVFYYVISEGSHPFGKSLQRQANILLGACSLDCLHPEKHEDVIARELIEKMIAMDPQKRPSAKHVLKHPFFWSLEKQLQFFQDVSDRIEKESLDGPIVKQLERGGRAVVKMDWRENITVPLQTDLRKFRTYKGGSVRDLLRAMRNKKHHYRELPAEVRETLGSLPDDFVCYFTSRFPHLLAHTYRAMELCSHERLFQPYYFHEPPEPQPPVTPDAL
Procedure, shortened: as §1

LATS1 = target: T3, LATS1 (Homo sapiens, UniProt O95835)
T3 sequence (O95835 1-1130): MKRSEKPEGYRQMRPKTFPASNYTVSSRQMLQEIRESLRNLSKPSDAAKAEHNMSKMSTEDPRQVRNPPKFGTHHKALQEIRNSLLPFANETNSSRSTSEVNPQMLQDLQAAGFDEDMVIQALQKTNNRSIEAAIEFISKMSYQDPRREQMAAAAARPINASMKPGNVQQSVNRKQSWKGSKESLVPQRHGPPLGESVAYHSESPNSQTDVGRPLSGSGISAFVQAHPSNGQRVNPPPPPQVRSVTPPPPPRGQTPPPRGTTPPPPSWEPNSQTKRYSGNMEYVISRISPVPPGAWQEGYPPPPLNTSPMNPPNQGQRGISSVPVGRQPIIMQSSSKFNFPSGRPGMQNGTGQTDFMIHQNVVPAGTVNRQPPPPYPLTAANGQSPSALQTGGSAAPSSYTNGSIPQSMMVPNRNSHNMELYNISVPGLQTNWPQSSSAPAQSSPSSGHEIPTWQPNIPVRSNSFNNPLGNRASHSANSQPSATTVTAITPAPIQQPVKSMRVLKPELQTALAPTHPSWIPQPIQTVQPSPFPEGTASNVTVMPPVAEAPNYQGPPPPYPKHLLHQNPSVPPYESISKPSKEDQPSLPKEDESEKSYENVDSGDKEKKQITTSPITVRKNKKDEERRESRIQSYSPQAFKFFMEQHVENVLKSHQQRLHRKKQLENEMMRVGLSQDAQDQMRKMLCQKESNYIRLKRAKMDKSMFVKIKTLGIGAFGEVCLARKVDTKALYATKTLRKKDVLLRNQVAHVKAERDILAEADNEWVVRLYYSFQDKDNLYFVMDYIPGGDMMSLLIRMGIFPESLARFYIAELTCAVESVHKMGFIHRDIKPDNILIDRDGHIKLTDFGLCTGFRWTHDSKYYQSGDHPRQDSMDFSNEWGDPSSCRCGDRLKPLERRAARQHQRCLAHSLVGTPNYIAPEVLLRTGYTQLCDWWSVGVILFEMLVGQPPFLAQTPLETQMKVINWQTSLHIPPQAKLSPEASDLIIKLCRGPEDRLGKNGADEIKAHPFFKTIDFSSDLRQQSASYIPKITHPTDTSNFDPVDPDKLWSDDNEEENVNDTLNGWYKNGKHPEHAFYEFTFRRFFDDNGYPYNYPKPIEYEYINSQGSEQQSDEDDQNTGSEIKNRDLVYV
Procedure, shortened: as §1

NTRK3/TRKC = NTRK3/TRKC (Homo sapiens, UniProt Q16288)
NTRK3/TRKC, sequence (Q16288 32-839): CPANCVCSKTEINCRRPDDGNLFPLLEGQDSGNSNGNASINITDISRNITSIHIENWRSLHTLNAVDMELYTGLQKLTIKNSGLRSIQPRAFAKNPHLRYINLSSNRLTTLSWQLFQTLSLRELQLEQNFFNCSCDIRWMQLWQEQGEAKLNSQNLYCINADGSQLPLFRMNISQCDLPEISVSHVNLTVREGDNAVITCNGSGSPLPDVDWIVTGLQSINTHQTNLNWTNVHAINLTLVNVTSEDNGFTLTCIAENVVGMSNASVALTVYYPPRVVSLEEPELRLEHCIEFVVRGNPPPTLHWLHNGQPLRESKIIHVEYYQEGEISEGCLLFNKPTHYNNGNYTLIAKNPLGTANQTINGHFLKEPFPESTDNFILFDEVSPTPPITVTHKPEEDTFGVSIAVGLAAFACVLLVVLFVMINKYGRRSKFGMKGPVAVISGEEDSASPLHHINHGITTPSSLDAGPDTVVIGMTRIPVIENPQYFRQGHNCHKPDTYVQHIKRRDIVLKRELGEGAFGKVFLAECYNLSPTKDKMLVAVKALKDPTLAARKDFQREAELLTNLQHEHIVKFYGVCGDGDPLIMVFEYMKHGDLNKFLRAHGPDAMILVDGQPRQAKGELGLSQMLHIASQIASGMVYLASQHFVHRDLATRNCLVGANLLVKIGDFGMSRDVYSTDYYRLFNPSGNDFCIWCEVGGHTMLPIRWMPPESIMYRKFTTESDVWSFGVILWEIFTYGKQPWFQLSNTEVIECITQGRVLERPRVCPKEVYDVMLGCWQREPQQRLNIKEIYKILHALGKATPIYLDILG
Procedure, shortened: as §1

ULK2 = target: T4, ULK2 (Homo sapiens, UniProt Q8IYT8)
T4 construct: AssayQuant Technologies, Inc. (contract laboratory that ran the panel)
T4 sequence (Q8IYT8 1-1036): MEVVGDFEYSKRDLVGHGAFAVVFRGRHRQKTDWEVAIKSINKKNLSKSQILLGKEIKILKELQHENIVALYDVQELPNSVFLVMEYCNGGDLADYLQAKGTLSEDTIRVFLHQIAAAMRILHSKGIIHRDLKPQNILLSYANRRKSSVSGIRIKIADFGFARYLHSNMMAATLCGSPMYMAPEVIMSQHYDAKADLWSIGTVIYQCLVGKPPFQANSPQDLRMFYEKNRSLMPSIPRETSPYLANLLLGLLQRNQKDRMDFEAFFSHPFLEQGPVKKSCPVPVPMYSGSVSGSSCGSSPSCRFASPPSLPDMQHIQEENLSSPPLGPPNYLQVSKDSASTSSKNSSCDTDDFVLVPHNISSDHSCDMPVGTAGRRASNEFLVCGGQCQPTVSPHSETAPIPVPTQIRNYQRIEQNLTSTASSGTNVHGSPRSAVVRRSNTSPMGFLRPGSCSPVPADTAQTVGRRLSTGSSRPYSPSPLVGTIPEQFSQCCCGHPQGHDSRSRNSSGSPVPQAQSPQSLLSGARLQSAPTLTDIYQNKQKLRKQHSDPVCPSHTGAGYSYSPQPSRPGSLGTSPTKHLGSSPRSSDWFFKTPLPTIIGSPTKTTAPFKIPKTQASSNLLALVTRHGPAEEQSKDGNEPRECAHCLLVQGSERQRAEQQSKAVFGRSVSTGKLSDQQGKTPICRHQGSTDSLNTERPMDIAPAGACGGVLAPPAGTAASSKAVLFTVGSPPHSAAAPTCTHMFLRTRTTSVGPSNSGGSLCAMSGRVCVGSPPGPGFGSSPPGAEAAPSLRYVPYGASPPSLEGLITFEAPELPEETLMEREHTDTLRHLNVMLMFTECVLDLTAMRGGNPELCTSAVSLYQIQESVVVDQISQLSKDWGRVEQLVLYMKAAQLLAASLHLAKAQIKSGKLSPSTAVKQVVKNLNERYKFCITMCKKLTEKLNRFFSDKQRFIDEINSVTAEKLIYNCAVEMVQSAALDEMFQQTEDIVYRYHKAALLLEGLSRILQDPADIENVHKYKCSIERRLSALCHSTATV
Procedure, shortened: as §1

BRAF(V599E), sequence (P15056 whole entry V600E): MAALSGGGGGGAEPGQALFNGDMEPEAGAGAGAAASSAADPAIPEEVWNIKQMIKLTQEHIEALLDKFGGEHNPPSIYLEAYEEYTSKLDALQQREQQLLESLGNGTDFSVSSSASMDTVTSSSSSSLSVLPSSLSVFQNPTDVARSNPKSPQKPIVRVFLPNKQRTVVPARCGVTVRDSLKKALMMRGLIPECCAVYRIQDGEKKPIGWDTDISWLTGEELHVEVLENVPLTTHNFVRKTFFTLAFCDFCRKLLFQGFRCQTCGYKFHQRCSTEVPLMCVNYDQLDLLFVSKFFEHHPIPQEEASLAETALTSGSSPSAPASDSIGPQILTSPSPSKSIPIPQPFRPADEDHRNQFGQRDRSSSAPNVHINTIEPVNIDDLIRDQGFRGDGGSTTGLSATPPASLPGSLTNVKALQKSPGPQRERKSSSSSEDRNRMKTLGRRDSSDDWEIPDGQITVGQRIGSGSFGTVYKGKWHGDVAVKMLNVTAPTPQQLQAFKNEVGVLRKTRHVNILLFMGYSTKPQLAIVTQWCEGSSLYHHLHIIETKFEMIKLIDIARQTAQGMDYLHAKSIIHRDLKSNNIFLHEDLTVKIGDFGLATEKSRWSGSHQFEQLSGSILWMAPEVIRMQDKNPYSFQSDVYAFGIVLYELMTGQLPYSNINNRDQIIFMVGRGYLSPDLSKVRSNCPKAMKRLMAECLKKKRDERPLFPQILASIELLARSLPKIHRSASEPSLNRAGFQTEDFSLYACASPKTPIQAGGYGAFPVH

## C=CC(=O)N1CCCC(c2c(F)cc(C(N)=O)c3[nH]c4c(c23)CCCCC4)C1 (single isomer, unassigned) [Compound 5-6]
BRAF(V599E)
  inhibition at 1 µM: -13.2%
CDK3/E1
  inhibition at 1 µM: -15.3%
CDK6/D3
  inhibition at 1 µM: -8%
ERN1
  inhibition at 1 µM: -5.4%
LATS1
  inhibition at 1 µM: -24.7%
NTRK3/TRKC
  inhibition at 1 µM: -25.7%
ULK2
  inhibition at 1 µM: -17.5%

## C=CC(=O)N1CCC[C@@H](c2c(F)cc(C(N)=O)c3[nH]c4c(c23)CC2(CC4)CC2)C1 [Compound 6-2, (S)-5-(1-acryloylpiperidin-3-yl)-6-fluoro-1,2,4,9-tetrahydrospiro[carbazole-3,1′-cyclopropane]-8-carboxamide]
BRAF(V599E)
  inhibition at 1 µM: -4.9%
CDK3/E1
  inhibition at 1 µM: 13.7%
CDK6/D3
  inhibition at 1 µM: -6.1%
ERN1
  inhibition at 1 µM: 3.1%
LATS1
  inhibition at 1 µM: 10.1%
NTRK3/TRKC
  inhibition at 1 µM: 5.7%
ULK2
  inhibition at 1 µM: -6.2%

## C=CC(=O)N1CCC[C@@H](c2c(F)cc(C(N)=O)c3[nH]c4c(c23)CCC4)C1 [Compound 10-2, (S)-8-(1-acryloylpiperidin-3-yl)-7-fluoro-1,2,3,4-tetrahydrocyclo-penta[b]indole-5-carboxamide]
BRAF(V599E)
  inhibition at 1 µM: 4.3%
CDK3/E1
  inhibition at 1 µM: -7.7%
CDK6/D3
  inhibition at 1 µM: -18.4%
ERN1
  inhibition at 1 µM: -2.9%
LATS1
  inhibition at 1 µM: 22.9%
NTRK3/TRKC
  inhibition at 1 µM: 2.9%
ULK2
  inhibition at 1 µM: -5.8%
